Assay results taken from patent publication US20260234403A1, “PHOTOACTIVE FLUORESCENT COMPOUNDS AND USE THEREOF FOR LABELING OF PROTEINS” (EIKON THERAPEUTICS, INC., priority 2023, published 2026).

Test system: Wild-type (WT) U2OS cells
Experiment: Reduction in nonspecific labeling of WT cells (number of tracks vs PA-JF549)
Format: cell-based
Settings: 100 nM, 1 hr, ratio with PA-JF549 in the numerator
Method: Using the methods described in Tables 4a and 4b above, labelling specificity of the compound of Examples 1-28 was measured and compared to PA-JF549. U2OS cells wild type or expressing ER-HaloTag fusion were incubated with PA-JF549 or Examples 1-28 for 1 hr. […] Labeling specificity, as measured by the fold reduction in nonspecific labeling of WT cells, was calculated by number of tracks measured in WT cells for Examples 1-28 compared to the number of tracks in WT cells for PA-JF549, expressed as the ratio with PA-JF549 in the numerator.

[1] = Table 4b, Example 19 with 642 nm light

Compound	Fold reduction in nonspecific labeling [1]	Fold reduction in nonspecific labeling (Table 4a)
1,1′-(6-((2-(2-((6-chlorohexyl)oxy)ethoxy)ethyl)carbamoyl)-2-diazo-3-oxo-2,3-dihydrospiro[indene-1,9′-xanthene]-3′,6′-diyl)bis(azetidine-3-carboxamide [Example 20]	>10	
CN(C)C(=O)C1CN(c2ccc3c(c2)Oc2cc(N4CC(C(=O)N(C)C)C4)ccc2C32C(=[N+]=[N-])C(=O)c3ccc(C(=O)NCc4ccc(COc5nc(N)nc6nc[nH]c56)cc4)cc32)C1 [Example 5, 1,1′-(6-((4-(((2-amino-7H-purin-6-yl)oxy)methyl)benzyl)carbamoyl)-2-diazo-3-oxo-2,3-dihydrospiro[indene-1,9′-xanthene]-3′,6′-diyl)bis(N,N-dimethylazetidine-3-carboxamide)]	>10	>10
COC(=O)[C@H]1CCN1c1ccc2c(c1)Oc1cc(N3CC[C@@H]3C(=O)OC)ccc1C21C(=[N+]=[N-])C(=O)c2ccc(C(=O)NCCOCCOCCCCCCCl)cc21 [Example 6, Dimethyl 1,1′-(6-((2-(2-((6-chlorohexyl)oxy)ethoxy)ethyl)carbamoyl)-2-diazo-3-oxo-2,3-dihydrospiro[indene-1,9′-xanthene]-3′,6′-diyl)(2R,2′R)-bis(azetidine-2-carboxylate)]	1-5	1-5
[N-]=[N+]=C1C(=O)c2ccc(C(=O)NCCOCCOCCCCCCCl)cc2C12c1ccc(N3CC(O)C3)cc1Oc1cc(N3CC(O)C3)ccc12 [Example 7, N-(2-(2-((6-chlorohexyl)oxy)ethoxy)ethyl)-2-diazo-3′,6′-bis(3-hydroxyazetidin-1-yl)-3-oxo-2,3-dihydrospiro[indene-1,9′-xanthene]-6-carboxamide]	>10	>10
CN(CCOCCOCCCCCCCl)C(=O)c1ccc2c(c1)C1(C(=[N+]=[N-])C2=O)c2ccc(N3CCC3)cc2Oc2cc(N3CCC3)ccc21 [Example 8, 3′,6′-di(azetidin-1-yl)-N-(2-(2-((6-chlorohexyl)oxy)ethoxy)ethyl)-2-diazo-N-methyl-3-oxo-2,3-dihydrospiro[indene-1,9′-xanthene]-6-carboxamide]	5-10	5-10
[N-]=[N+]=C1C(=O)c2ccc(C(=O)NCCOCCOCCCCCCCl)cc2C12c1ccc(N3CC(C(=O)N4CCOCC4)C3)cc1Oc1cc(N3CC(C(=O)N4CCOCC4)C3)ccc12 [Example 9, N-(2-(2-((6-chlorohexyl)oxy)ethoxy)ethyl)-2-diazo-3′,6′-bis(3-(morpholine-4-carbonyl)azetidin-1-yl)-3-oxo-2,3-dihydrospiro[indene-1,9′-xanthene]-6-carboxamide]	>10	>10
[N-]=[N+]=C1C(=O)c2ccc(C(=O)NCCOCCOCCCCCCCl)cc2C12c1ccc(N3CC(C(=O)N4CCCC4)C3)cc1Oc1cc(N3CC(C(=O)N4CCCC4)C3)ccc12 [Example 10, N-(2-(2-((6-chlorohexyl)oxy)ethoxy)ethyl)-2-diazo-3-oxo-3′,6′-bis(3-(pyrrolidine-1-carbonyl)azetidin-1-yl)-2,3-dihydrospiro[indene-1,9′-xanthene]-6-carboxamide]	5-10	5-10
CN1CCN(C(=O)C2CN(c3ccc4c(c3)Oc3cc(N5CC(C(=O)N6CCN(C)CC6)C5)ccc3C43C(=[N+]=[N-])C(=O)c4ccc(C(=O)NCCOCCOCCCCCCCl)cc43)C2)CC1 [Example 11, N-(2-(2-((6-chlorohexyl)oxy)ethoxy)ethyl)-2-diazo-3′,6′-bis(3-(4-methylpiperazine-1-carbonyl)azetidin-1-yl)-3-oxo-2,3-dihydrospiro[indene-1,9′-xanthene]-6-carboxamide]	1-5	1-5
